Measurements as given in ChEMBL document CHEMBL1221244, “Total synthesis and biological evaluation of tambjamine K and a library of unnatural analogs” (Bioorg Med Chem Lett, 2010).
Activity calls are given as the source filed them. The calls are words filed in the database; no cut-off is given here.

Key:
MCF7 = test: Antiproliferative activity against human MCF7 cells assessed as cell viability at 10 uM after 48 hrs by WST-1 assay; assay type: functional; conditions: MCF7, 48 h, read-out: Activity
HCT-116 = test: Antiproliferative activity against human HCT116 cells after 48 hrs by WST-1 assay; assay type: functional, cell-based; conditions: HCT-116, 48 h
MDA-MB-231 [1] = test: Antiproliferative activity against human MDA-MB-231 cells after 48 hrs by WST-1 assay; assay type: functional, cell-based; conditions: MDA-MB-231, 48 h
MDA-MB-231 [2] = test: Antiproliferative activity against human MDA-MB-231 cells assessed as cell viability at 10 uM after 48 hrs by WST-1 assay; assay type: functional; conditions: MDA-MB-231, 48 h, read-out: Activity
NCI-H520 = test: Antiproliferative activity against human NCIH520 cells after 48 hrs after 48 hrs by WST-1 assay; assay type: functional, cell-based
SW-620 = test: Antiinvasive activity against human SW620 cells at 10 uM after 24 hrs; assay type: functional, cell-based
Caco-2 = test: Antiproliferative activity against human Caco-2 cells; assay type: functional, cell-based

COC1=CC(c2ccc[nH]2)=N/C1=C\NC1CCc2ccccc21 (configuration not stated)
viability at 10 µM (MCF7): < 20%

COC1=CC(c2ccc[nH]2)=N/C1=C\NC1CCCc2ccccc21 (configuration not stated)
IC50 (HCT-116): 1.8 µM | IC50 (MDA-MB-231 [1]): 4 µM | viability at 10 µM (MCF7): < 10% | viability at 10 µM (MDA-MB-231 [2]): 40% | Activity (NCI-H520): inactive

CO[C@@H]1CC(c2ccc[nH]2)=N[C@]12O[C@@H](C)C[C@@H]1CCCCCCCc3ccc([nH]3)[C@H]12 [MARINEOSIN A]
IC50 (HCT-116): 0.14 µM | IC50 (MDA-MB-231 [1]): 0.36 µM

CCCC(C)N/C=C1\N=C(c2ccc[nH]2)C=C1OC (configuration not stated)
viability at 10 µM (MCF7): < 20%

COC1=CC(c2ccc[nH]2)=N/C1=C\NC1Cc2ccccc2C1
viability at 10 µM (MCF7): < 20% | Activity (SW-620): inactive

COC1=CC(c2ccc[nH]2)=N/C1=C\NCCC(C)C [TAMBJAMINE K]
IC50 (HCT-116): 13.7 µM | IC50 (MDA-MB-231 [1]): 15.3 µM | IC50 (Caco-2): 0.0033 µM

COC1=CC(c2ccc[nH]2)=N/C1=C\NCC1CCCCC1
viability at 10 µM (MCF7): < 20%

COC1=CC(c2ccc[nH]2)=N/C1=C/c1ccc(CCCCCCC/C=C/C(C)=O)[nH]1
IC50 (HCT-116): 3.6 µM | IC50 (MDA-MB-231 [1]): 3.5 µM
